Laboratory results taken from US11554116B2, “Agent for preventing and/or treating alzheimer's disease” (KYOTO UNIVERSITY, priority 2017, dated 2023).
Counter-ions that a name gives are not always drawn. Like-named read-outs stand apart in the source and are kept apart here.

Test system: Aβ production (Aβ1-40, 1-42 in culture supernatant)
Assay: Aβ assay in cerebral cortex nerve cells induced from familial AD patient iPS cells (PSEN1 G384A)
Type: cell-based, human
[1] = added at 0.0016, 0.008, 0.04, 0.2, 1, 5, 25 μM to cerebral cortex nerve cells, 48 hr

`CC(C)C[C@H]1C(=O)N2CCC[C@H]2[C@]2(O)O[C@](NC(=O)[C@@H]3C=C4c5cccc6[nH]cc(c56)C[C@H]4N(C)C3)(C(C)C)C(=O)N12` [Alpha-Ergocryptine, α-ergocryptine] was tested, and the Aβ42/40 ratio was “did not change”, the Aβ production-lowering action was “showed an Aβ production-lowering action similar to that of bromocriptine” and the “lowering of Aβ42 subtype compared with Aβ40” value was “lowered Aβ40 and 42 to the same degree”.

`Oc1cc2c(cc1O)C(c1ccccc1)CNCC2` (stereo not drawn) [SKF38393] was tested, and the “change of Aβ production” value [1] was “none of the compounds changed Aβ production”.

In the case of `CCCN1C[C@H](CSC)C[C@@H]2c3cccc4[nH]cc(c34)C[C@H]21` [Pergolide mesylate], the Aβ production-lowering action (at 5, 25 μM, cerebral cortex nerve cells, 48 hr) is reported as “showed an Aβ production-lowering action”.

In the case of `C=CCN1C[C@H](C(=O)N(CCCN(C)C)C(=O)NCC)C[C@@H]2c3cccc4[nH]cc(c34)C[C@H]21` [Cabergoline], the Aβ production-lowering action (at 25 μM, cerebral cortex nerve cells, 48 hr) is reported as “showed an Aβ production-lowering action”.

In the case of `CN1C[C@H](C(=O)N[C@]2(C)O[C@@]3(O)[C@@H]4CCCN4C(=O)[C@H](Cc4ccccc4)N3C2=O)C=C2c3cccc4[nH]cc(c34)C[C@H]21.CN1C[C@H](C(=O)N[C@]2(C)O[C@@]3(O)[C@@H]4CCCN4C(=O)[C@H](Cc4ccccc4)N3C2=O)C=C2c3cccc4[nH]cc(c34)C[C@H]21.O=C(O)C(O)C(O)C(=O)O` [Ergotamine Tartrate, ergotamine], the Aβ production-lowering action is reported as “showed a similar Aβ production-lowering action”.

For `CC(C)[C@@]1(NC(=O)[C@@H]2C[C@@H]3c4cccc5[nH]cc(c45)C[C@H]3N(C)C2)O[C@@]2(O)[C@@H]3CCCN3C(=O)[C@H](Cc3ccccc3)N2C1=O` [Dihydroergocristine mesylate, dihydroergocristine], the Aβ production-lowering action was “showed a similar Aβ production-lowering action”.

In the case of `CC(C)C[C@H]1C(=O)N2CCC[C@H]2[C@]2(O)O[C@](NC(=O)[C@@H]3C=C4c5cccc6[nH]c(Br)c(c56)C[C@H]4N(C)C3)(C(C)C)C(=O)N12` [bromocriptine], the Aβ42/40 ratio is reported as “lower Aβ42/40 ratio”, the Aβ production-lowering action is reported as “decreases the production of Aβ” and the “lowering of Aβ42 subtype compared with Aβ40” value is reported as “more efficiently reduced the production of Aβ42 subtype than Aβ40”.

In the case of `Cl.NCCc1ccc(O)c(O)c1` [dopamine hydrochloride], the “change of Aβ production” value is reported as “none of the compounds changed Aβ production”.

`CCCN[C@H]1CCc2nc(N)sc2C1` [Pramipexole dihydrochloride] was tested, and the “change of Aβ production” value [1] was “none of the compounds changed Aβ production”.

For `CCCN(CCC)CCc1cccc2c1CC(=O)N2` [Ropinirole hydrochloride], the “change of Aβ production” value [1] was “none of the compounds changed Aβ production”.

In the case of `CN1C[C@H](C(=O)N[C@]2(C)O[C@@]3(O)[C@@H]4CCCN4C(=O)[C@H](Cc4ccccc4)N3C2=O)C[C@@H]2c3cccc4[nH]cc(c34)C[C@H]21.CS(=O)(=O)O` [Dihydroergotamine Mesylate, dihydroergotamine], the Aβ production-lowering action is reported as “showed a similar Aβ production-lowering action”.

For `Cc1cccc(C(=O)NCN2CCN(c3ccccc3C#N)CC2)c1` [PD168077], the “change of Aβ production” value [1] was “none of the compounds changed Aβ production”.

For `CC(C)[C@@]1(NC(=O)[C@@H]2C=C3c4cccc5[nH]cc(c45)C[C@H]3N(C)C2)O[C@@]2(O)[C@@H]3CCCN3C(=O)[C@H](Cc3ccccc3)N2C1=O` [Ergocristine, ergocristine], the Aβ production-lowering action was “showed a similar Aβ production-lowering action”.

In the case of `C=CCN1CCc2nc(N)sc2CC1` [Talipexole], the “change of Aβ production” value [1] is reported as “none of the compounds changed Aβ production”.
